Here are results for 1 compound from patent US20050233974A1, “Treating infectious diseases using ice inhibitors” (priority 2003, published 2005).

The test system of assay [1] is P. aeruginosa strain 19660. Description: corneal infection model, P. aeruginosa ATCC strain 19660. The class given is in vivo, B6 mice. On the procedure:
Eight week old female B6 mice (The Jackson Laboratory, Bar Harbor, Me.) were used in these experiments. The left cornea of each anesthetized mouse was scarified with three parallel 1 mm incisions using a sterile 25⅝ gauge needle under a stereoscopic microscope. […] Eyes were examined macroscopically at 1 day post-infection (p.i.) and at times described below to ensure that all mice were similarly infected and to monitor the course of disease. All animals were treated humanely and in full compliance with the Association for Research in Vision and Ophthalmology resolution on usage and treatment of animals in research.
Worth, Tex.) begun at 18 h p.i. and then 3×/day for 7 days. Initiation of ICE inhibitor therapy at 18 h p.i. was chosen to test experimentally in order to provide more clinically relevant data. In addition, by this time point, it would be expected that a patient would notice ocular symptoms such as haziness, discomfort and pain and would seek care.
Mice (n=5/group) were color coded and examined in masked fashion by two independent observers at 1, 3, 5 and 7 days p.i. to grade the severity of disease after P. aeruginosa infection.
The samples were subjected to three freeze-thaw cycles and then centrifuged at 14,000 rpm for 20 min. […] The change in absorbance at 460 nm was continuously monitored for 5 min. The results were expressed as units of MPO/cornea.
For this, individual corneas were homogenized in sterile PBS and aliquots (100 μl) of serial dilutions were plated onto Pseudomonas isolation agar (Difco, Detroit, Mich.) plates in triplicate. Plates were incubated for 24 h at 37° C. Results were expressed as log10 number of CFU/cornea±SEM.
Corneas (n=5/group) were removed at 7 days p.i. and immediately stored at −70° C. Before analysis, individual corneas were homogenized in 0.1% Tween 20-PBS with a glass Kontes pestle (Fisher, Itasca, Ill.) centrifuged at 5000×g for 10 minutes at 4° C., and supernatants were used to quantify IL-1β and MIP-2 proteins. Results are reported as pg/ml.
The change in clinical score with time within a group was tested by the Friedman two-way analysis of variance by ranks. The difference in clinical score at each experimental time point between the ICE inhibitor and placebo treated B6 mice was tested by the Mann-Whitney U test. An unpaired, two-tailed Student's t-test was used to determine statistical significance for data from MPO assay, bacterial counts and ELISA analyses between treated and control groups. Mean differences were considered significant at P≦0.05. Experiments were repeated at least twice to ensure reproducibility and representative data from a single experiment are shown.

In assay [2] the test system is Pseudomonas isolates resistant to ciprofloxacin. The conditions noted are these: 22 ciprofloxacin-resistant isolates of 141 culture-proven cases; cited from earlier work.

Turning to `O=C(O)c1cn(C2CC2)c2cc(N3CCNCC3)c(F)cc2c1=O` [ciprofloxacin], the “histopathological examination of eyes” value in assay [1] (7 days p.i.) is “heavier inflammatory cells infiltrate in the anterior chamber and adherent to the corneal endothelium”. For the same compound, in assay [1] (7 days p.i., ICE inhibitor vs. placebo (P=0.02)), the “viable bacteria in cornea (plate counts)” value was “No bacterial colonies were isolated”. The “protein levels of MIP-2 in cornea (ELISA)” value in assay [1] (7 days p.i., ICE inhibitor vs. vehicle (P=0.012), with ciprofloxacin vs. vehicle and ciprofloxacin (P=0.04)) was “markedly reduced”. In addition, the “protein levels of IL-1β in cornea (ELISA)” value in assay [1] (7 days p.i., ICE inhibitor vs. vehicle (P=0.023), with ciprofloxacin vs. vehicle and ciprofloxacin (P=0.036)) was “markedly reduced”. For the same compound, the “slit lamp microscopy of cornea” value in assay [1] (day 7 p.i.) is given as “heavier cellular infiltration in the cornea as well as in the anterior chamber”. The mean MIC in assay [2] is 43 µg/mL.
